Values joined by “and” are separate entries in the source; they are usually repeats but may differ in a detail not shown here. Identical values can stand only once. Inconclusive results and toxic doses are left out.
System: BDF1 mice, B16 melanoma ip, median survival T/C
Assay: NCI In Vivo Anticancer Drug Screen. Data for tumor model B16 Melanoma (intraperitoneal) in B6D2F1 (BDF1) mice
Details: endpoint: median survival time, higher = longer survival
Summary of the method: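 Each result divides a survival or tumor-size measurement in the compound-treated group by the same measurement in the vehicle group.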

[1] = dose: 100.0 mg/kg/injection, schedule: Q01DX009 (ip), vehicle: Klucel (hydroxypropylcellulose) (HPC)
[2] = dose: 100.0 mg/kg/injection, schedule: Q01DX009 (ip), vehicle: saline
[3] = dose: 25.0 mg/kg/injection, schedule: Q01DX009 (ip), vehicle: Klucel (hydroxypropylcellulose) (HPC)
[4] = dose: 50.0 mg/kg/injection, schedule: Q01DX009 (ip), vehicle: Klucel (hydroxypropylcellulose) (HPC)
[5] = dose: 200.0 mg/kg/injection, schedule: Q01DX009 (ip), vehicle: Klucel (hydroxypropylcellulose) (HPC)
[6] = dose: 400.0 mg/kg/injection, schedule: Q01DX009 (ip), vehicle: Klucel (hydroxypropylcellulose) (HPC)
[7] = dose: 100.0 mg/kg/injection, schedule: Q04DX003 (ip), vehicle: Klucel (hydroxypropylcellulose) (HPC)
[8] = dose: 200.0 mg/kg/injection, schedule: Q04DX003 (ip), vehicle: Klucel (hydroxypropylcellulose) (HPC)
[9] = dose: 12.5 mg/kg/injection, schedule: Q01DX009 (ip), vehicle: Klucel (hydroxypropylcellulose) (HPC)
[10] = dose: 100.0 mg/kg/injection, schedule: Q01DX009 (ip), vehicle: saline with Tween-80
[11] = dose: 200.0 mg/kg/injection, schedule: Q01DX009 (ip), vehicle: saline with Tween-80
[12] = dose: 400.0 mg/kg/injection, schedule: Q01DX009 (ip), vehicle: saline with Tween-80
[13] = dose: 50.0 mg/kg/injection, schedule: Q01DX009 (ip), vehicle: saline with Tween-80
[14] = dose: 100.0 mg/kg/injection, schedule: Q04DX003 (ip), vehicle: saline with Tween-80
[15] = dose: 200.0 mg/kg/injection, schedule: Q04DX003 (ip), vehicle: saline with Tween-80
[16] = dose: 12.5 mg/kg/injection, schedule: Q01DX009 (ip), vehicle: saline with Tween-80
[17] = dose: 25.0 mg/kg/injection, schedule: Q01DX009 (ip), vehicle: saline with Tween-80

## O=C1OCCN1/N=C/c1ccc([N+](=O)[O-])o1
[1]
  T/C: 100 % of control

## Cc1ccc2oc(-c3ccccc3)c(O)c(=O)c2c1
[2]
  T/C: 106 % of control
dose: 200.0 mg/kg/injection, schedule: Q01DX009 (ip), vehicle: saline
  T/C: 108 % of control
dose: 400.0 mg/kg/injection, schedule: Q01DX009 (ip), vehicle: saline
  T/C: 104 % of control

## O=C(O)C1(NO)CCCC1
[2]
  T/C: 87 % of control

## COc1ccccc1OCC(O)COC(N)=O (configuration not stated)
[3]
  T/C: 94 % of control
[4]
  T/C: 91 % of control
[1]
  T/C: 105 % of control
[5]
  T/C: 100 % of control
[6]
  T/C: 105 % of control

## CCN(CC)C(N)=S
[7]
  T/C: 102 % of control
[8]
  T/C: 95 % of control
dose: 400.0 mg/kg/injection, schedule: Q04DX003 (ip), vehicle: Klucel (hydroxypropylcellulose) (HPC)
  T/C: 97 % of control

## COc1cccc(CNc2cccc(Cl)c2Cl)c1OC
[9]
  T/C: 99 % of control
[3]
  T/C: 105 % of control
[4]
  T/C: 101 % of control
[1]
  T/C: 101 % of control
[5]
  T/C: 95 % of control
[6]
  T/C: 102 % of control

## O=C(O)C1OC1c1ccccc1 (configuration not stated)
[10]
  T/C: 97 % of control
[11]
  T/C: 102 % of control
[12]
  T/C: 100 % of control

## COc1cccc2c1C(=O)c1c(O)c3c(c(O)c1C2=O)C[C@H](O)C[C@@H]3OC1CC(N)C(O)C(C)O1 (some centres not stated)
dose: 12.5 mg/kg/injection, schedule: Q01DX001 (ip), vehicle: water
  T/C: 169 % of control
dose: 50.0 mg/kg/injection, schedule: Q01DX001 (ip), vehicle: water
  T/C: 110 % of control and 169 % of control and 267 % of control
dose: 100.0 mg/kg/injection, schedule: Q01DX001 (ip), vehicle: water
  T/C: 110 % of control

## CC(C)(C)OC(=O)n1cnc(CC(NC(=O)OCc2ccccc2)C(=O)O)c1 (configuration not stated)
[13]
  T/C: 98 % of control
[10]
  T/C: 89 % of control
[11]
  T/C: 92 % of control

## CC(=O)C12OC1(C)CC1C3CC=C4CC(O)CCC4(C)C3CCC12C (configuration not stated)
[1]
  T/C: 107 % of control
[5]
  T/C: 95 % of control
[6]
  T/C: 105 % of control

## COc1ccc2c3c(c4cc(OC)c(OC)cc4c2c1)C[C@H]1CCCCN1C3
dose: 0.13 mg/kg/injection, schedule: Q01DX009 (ip), vehicle: saline
  T/C: 114 % of control
dose: 0.25 mg/kg/injection, schedule: Q01DX009 (ip), vehicle: saline
  T/C: 109 % of control
dose: 0.5 mg/kg/injection, schedule: Q01DX009 (ip), vehicle: saline
  T/C: 104 % of control

## CC(Oc1ccccc1)C(=O)c1ccccc1 (configuration not stated)
[10]
  T/C: 90 % of control
[11]
  T/C: 90 % of control
[12]
  T/C: 93 % of control

## O=C(NNCc1ccccc1)C(O)C(O)C(O)CO (configuration not stated)
[3]
  T/C: 95 % of control
[4]
  T/C: 95 % of control
[1]
  T/C: 92 % of control
[5]
  T/C: 100 % of control
[6]
  T/C: 95 % of control

## COC(=O)C1CCC(C(=O)O)CC1 (configuration not stated)
[7]
  T/C: 100 % of control
[8]
  T/C: 100 % of control

## NC(Cc1ccc(O)cc1)C(=O)O (configuration not stated)
[10]
  T/C: 110 % of control
[14]
  T/C: 107 % of control
[11]
  T/C: 87 % of control
[15]
  T/C: 104 % of control
[12]
  T/C: 90 % of control
dose: 400.0 mg/kg/injection, schedule: Q04DX003 (ip), vehicle: saline with Tween-80
  T/C: 104 % of control

## COc1ccc(/C=C/c2cnc3ccccc3n2)cc1OC
dose: 75.0 mg/kg/injection, schedule: Q01DX009 (ip), vehicle: Klucel (hydroxypropylcellulose) (HPC)
  T/C: 100 % of control
dose: 150.0 mg/kg/injection, schedule: Q01DX009 (ip), vehicle: Klucel (hydroxypropylcellulose) (HPC)
  T/C: 100 % of control
dose: 300.0 mg/kg/injection, schedule: Q01DX009 (ip), vehicle: Klucel (hydroxypropylcellulose) (HPC)
  T/C: 92 % of control

## CC1(C)C=C(C(Br)c2ccc(Cl)cc2)C(=O)c2ccccc21 (configuration not stated)
[13]
  T/C: 103 % of control
[10]
  T/C: 106 % of control
[11]
  T/C: 99 % of control
[12]
  T/C: 97 % of control

## CCC(=S)Nc1ccc(Cl)cc1
dose: 25.0 mg/kg/injection, schedule: Q01DX009 (ip), vehicle: carboxymethylcellulose (CMC)
  T/C: 100 % of control
dose: 50.0 mg/kg/injection, schedule: Q01DX009 (ip), vehicle: carboxymethylcellulose (CMC)
  T/C: 107 % of control
dose: 100.0 mg/kg/injection, schedule: Q01DX009 (ip), vehicle: carboxymethylcellulose (CMC)
  T/C: 103 % of control

## CN(CCO)C1=C(N2CC2)C(=O)C(N(C)CCO)=C(N2CC2)C1=O
dose: 100.0 micrograms/kg/injection, schedule: Q01DX009 (ip), vehicle: saline
  T/C: 111 % of control
dose: 200.0 micrograms/kg/injection, schedule: Q01DX009 (ip), vehicle: saline
  T/C: 118 % of control

## CSCCC(NC(=O)c1ccccc1)C(=O)O (configuration not stated)
[9]
  T/C: 89 % of control
[16]
  T/C: 104 % of control
[3]
  T/C: 100 % of control
[17]
  T/C: 97 % of control
[4]
  T/C: 88 % of control
[13]
  T/C: 99 % of control
[1]
  T/C: 88 % of control

## [Cl][Pt+2]([Cl])([Cl])[Cl].[NH-]C1CCCCC1.[NH-]C1CCCCC1
dose: 6.25 mg/kg/injection, schedule: Q01DX009 (ip), vehicle: other
  T/C: 124 % of control
dose: 12.5 mg/kg/injection, schedule: Q01DX009 (ip), vehicle: other
  T/C: 111 % of control
dose: 25.0 mg/kg/injection, schedule: Q01DX009 (ip), vehicle: other
  T/C: 112 % of control
dose: 50.0 mg/kg/injection, schedule: Q01DX009 (ip), vehicle: other
  T/C: 103 % of control

## Cc1c(N=CN(C)C)c(=O)n(-c2ccccc2)n1C
dose: 97.0 mg/kg/injection, schedule: Q04DX003 (ip), vehicle: Klucel (hydroxypropylcellulose) (HPC)
  T/C: 97 % of control
dose: 187.5 mg/kg/injection, schedule: Q04DX003 (ip), vehicle: Klucel (hydroxypropylcellulose) (HPC)
  T/C: 105 % of control
dose: 375.0 mg/kg/injection, schedule: Q04DX003 (ip), vehicle: Klucel (hydroxypropylcellulose) (HPC)
  T/C: 87 % of control

## Nc1nc(=S)c2ncn(C3CC(O)C(CO)O3)c2[nH]1 (configuration not stated)
dose: 1.25 mg/kg/injection, schedule: Q01DX009 (ip), vehicle: saline with Tween-80
  T/C: 104 % of control
dose: 1.25 mg/kg/injection, schedule: Q01DX009 (ip), vehicle: saline
  T/C: 102 % of control
dose: 2.5 mg/kg/injection, schedule: Q01DX009 (ip), vehicle: saline with Tween-80
  T/C: 117 % of control
dose: 2.5 mg/kg/injection, schedule: Q01DX009 (ip), vehicle: saline
  T/C: 93 % of control
dose: 5.0 mg/kg/injection, schedule: Q01DX009 (ip), vehicle: saline with Tween-80
  T/C: 113 % of control
dose: 5.0 mg/kg/injection, schedule: Q01DX009 (ip), vehicle: saline
  T/C: 104 % of control
dose: 10.0 mg/kg/injection, schedule: Q01DX009 (ip), vehicle: saline
  T/C: 104 % of control
dose: 12.5 mg/kg/injection, schedule: Q01DX009 (ip), vehicle: saline sonified
  T/C: 112 % of control
dose: 20.0 mg/kg/injection, schedule: Q01DX009 (ip), vehicle: saline
  T/C: 100 % of control
dose: 25.0 mg/kg/injection, schedule: Q01DX009 (ip), vehicle: saline sonified
  T/C: 110 % of control
dose: 50.0 mg/kg/injection, schedule: Q01DX009 (ip), vehicle: saline sonified
  T/C: 87 % of control

## CCOC(=O)C(=CN(C(C)C)C(C)C)C(=O)OCC
[13]
  T/C: 117 % of control
dose: 50.0 mg/kg/injection, schedule: Q04DX003 (ip), vehicle: saline with Tween-80
  T/C: 108 % of control
[10]
  T/C: 111 % of control
[14]
  T/C: 108 % of control
[15]
  T/C: 108 % of control

## O=NN(CCBr)C(=O)Nc1ccccc1
[16]
  T/C: 152 % of control
[17]
  T/C: 202 % of control
dose: 37.5 mg/kg/injection, schedule: Q01DX009 (ip), vehicle: saline with Tween-80
  T/C: 171 % of control
[13]
  T/C: 177 % of control

## COc1ccc(NC(=O)Nc2ccc(Cl)cc2C)cc1
dose: 100.0 mg/kg/injection, schedule: Q01DX009 (sc), vehicle: olive oil, sesame oil, peanut oil
  T/C: 101 % of control
dose: 200.0 mg/kg/injection, schedule: Q01DX009 (sc), vehicle: olive oil, sesame oil, peanut oil
  T/C: 111 % of control
dose: 400.0 mg/kg/injection, schedule: Q01DX009 (sc), vehicle: olive oil, sesame oil, peanut oil
  T/C: 103 % of control

## CS(=O)(=O)OCCN(CCOS(C)(=O)=O)c1ccc(N=O)cc1
dose: 0.1 mg/kg/injection, schedule: Q01DX009 (ip), vehicle: saline
  T/C: 150 % of control
dose: 0.2 mg/kg/injection, schedule: Q01DX009 (ip), vehicle: saline
  T/C: 184 % of control and 204 % of control
dose: 0.3 mg/kg/injection, schedule: Q01DX009 (ip), vehicle: saline
  T/C: 175 % of control

Reference: PubChem BioAssay AID192 (DTP/NCI, 2004)
